{"source": "paper PMC5061557", "about": "(Structure (London, England : 1993), 2016)", "molecules": {"B1": {"name": "E. coli L199Q HslU mutant with an N-terminal H6 tag (enzyme, UniProt P0A6H5 1-443, looked up)", "chain": "MSEMTPREIVSELDKHIIGQDNAKRSVAIALRNRWRRMQLNEELRHEVTPKNILMIGPTGVGKTEIARRLAKLANAPFIKVEATKFTEVGYVGKEVDSIIRDLTDAAVKMVRVQAIEKNRYRAEELAEERILDVLIPPAKNNWGQTEQQQEPSAARQAFRKKLREGQLDDKEIEIDLAAAPMGVEIMAPPGMEEMTSQQQSMFQNLGGQKQKARKLKIKDAMKLLIEEEAAKLVNPEELKQDAIDAVEQHGIVFIDEIDKICKRGESSGPDVSREGVQRDLLPLVEGCTVSTKHGMVKTDHILFIASGAFQIAKPSDLIPELQGRLPIRVELQALTTSDFERILTEPNASITVQYKALMATEGVNIEFTDSGIKRIAEAAWQVNESTENIGARRLHTVLERLMEEISYDASDLSGQNITIDADYVSKHLDALVADEDLSRFIL"}}, "key": {"WTHslU": {"target": "WTHslU (Escherichia coli, UniProt P0A6H5)", "sequence (P0A6H5 whole entry)": "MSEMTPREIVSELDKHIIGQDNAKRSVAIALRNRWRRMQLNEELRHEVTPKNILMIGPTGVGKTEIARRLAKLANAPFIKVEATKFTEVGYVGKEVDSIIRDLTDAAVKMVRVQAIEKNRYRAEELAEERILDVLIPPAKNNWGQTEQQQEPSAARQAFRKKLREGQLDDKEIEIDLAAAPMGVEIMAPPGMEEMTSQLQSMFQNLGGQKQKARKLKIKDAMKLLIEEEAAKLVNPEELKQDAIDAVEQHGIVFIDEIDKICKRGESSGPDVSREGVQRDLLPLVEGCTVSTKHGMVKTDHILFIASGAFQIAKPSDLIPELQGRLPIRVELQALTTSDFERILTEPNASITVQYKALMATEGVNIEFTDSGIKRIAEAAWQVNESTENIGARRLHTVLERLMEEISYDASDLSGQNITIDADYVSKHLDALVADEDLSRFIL", "experiment": "NADH-coupled ATPase assay", "type": "biochemical", "conditions": "5 mM ATP, pH 7.5, 20 mM MgCl2, 37 °C, without HslV"}, "crystal structure": {"target": "the molecule itself", "experiment": "crystal structure"}}}
{"molecule": "Nc1ncnc2c1ncn2[C@@H]1O[C@H](COP(=O)(O)OP(=O)(O)OP(=O)(O)O)[C@@H](O)[C@H]1O", "note": "[ATP]", "values": [{"measurement": "NADH-coupled ATPase assay", "setting": "WTHslU", "value": "assayed rates of ATP hydrolysis for this enzyme and wild type"}]}
{"molecule": "B1", "values": [{"measurement": "stoichiometry N", "setting": "crystal structure", "value": 6}]}
